This is an account of results in article PMC8286840, “Identifying SARS-CoV-2 antiviral compounds by screening for small molecule inhibitors of Nsp3 papain-like protease” (Biochemical Journal, 2021).

Counter-ions that a name gives are not always drawn. Like-named read-outs stand apart in the source and are kept apart here.

Assay [1] addresses T1, SARS-CoV-2 PLpro (nsp3 1564–1878) (Severe acute respiratory syndrome coronavirus 2, UniProt P0DTD1). As to the kind of experiment: biochemical. The arrangement: FRET-quenched peptide (Pro3) cleavage by PLpro, 10 min pre-incubation, slope over 20 min, normalised to no-compound control. The conditions noted are these: low concentration screen, read-out: % of control remaining.

Assay [2] has as its target T1, SARS-CoV-2 PLpro (nsp3 1564–1878). As to the kind of experiment: biochemical. The arrangement: FRET-quenched peptide (Pro3) cleavage by PLpro, 10 min pre-incubation, slope over 20 min, normalised to no-compound control. As to conditions: high concentration screen, read-out: % of control remaining.

In the case of `Clc1ccc(Nc2nnc(Cc3ccncc3)c3ccccc23)cc1` [Vatalanib], in assay [1] (Well no.=1619), the remaining activity at 1.25 µM is 97%. The remaining activity at 3.75 µM in assay [2] (Well no.=1619) stood at 95.2%.

In the case of `CC(=O)O[C@H]1C[C@@H]2CC[C@@H]3[C@H](CC[C@@]4(C)[C@H]3C[C@H]([N+]3(C)CCCCC3)[C@@H]4OC(C)=O)[C@@]2(C)C[C@@H]1N1CCCCC1` [Vecuronium], the remaining activity at 1.25 µM in assay [1] (Well no.=2014) came to 103%. Besides, the remaining activity at 3.75 µM in assay [2] (Well no.=2014) worked out at 103%.

Regarding `CC1(C)CCC(CN2CCN(c3ccc(C(=O)NS(=O)(=O)c4ccc(NCC5CCOCC5)c([N+](=O)[O-])c4)c(Oc4cnc5[nH]ccc5c4)c3)CC2)=C(c2ccc(Cl)cc2)C1` [Venetoclax], the remaining activity at 1.25 µM in assay [1] (Well no.=6396) was 107%; in assay [1] (Well no.=7400) it was 91.2%. Also, the values for the remaining activity at 3.75 µM in assay [2] (Well no.=6396) and in assay [2] (Well no.=7400) were 104% and 94.7%, respectively.

Take `COc1ccc(C(CN(C)C)C2(O)CCCCC2)cc1` (stereo not drawn) [Venlafaxine]: in assay [1] (Well no.=2044), the remaining activity at 1.25 µM worked out at 100%. For the same compound, the remaining activity at 3.75 µM in assay [2] (Well no.=2044) amounted to 99.4%.

For the compound `C=CCN1CCCC1CNC(=O)c1cc(S(N)(=O)=O)cc(OC)c1OC` (stereo not drawn) [Veralipride], in assay [1] (Well no.=7715), the remaining activity at 1.25 µM amounted to 93.1%. Further, the remaining activity at 3.75 µM in assay [2] (Well no.=7715) was 97.9%.

Take `COc1ccc(CCN(C)CCCC(C#N)(c2ccc(OC)c(OC)c2)C(C)C)cc1OC` (stereo not drawn) [Verapamil]: the remaining activity at 1.25 µM in assay [1] (Well no.=1721) turned out to be 100%. Besides, the remaining activity at 3.75 µM in assay [2] (Well no.=1721) came out at 100%.

Regarding `Cc1c([C@H](C)[C@@H]2NC[C@@H](C)C[C@H]2O)ccc2c1C[C@H]1[C@H]2CC=C2C[C@@H](O)CC[C@@]21C` [Veratramine], the remaining activity at 1.25 µM in assay [1] (Well no.=3280) was 102%. Besides, the remaining activity at 3.75 µM in assay [2] (Well no.=3280) came out at 102%.

As to `COc1ccc(C(=O)O[C@H]2CC[C@@]3(C)[C@@H]4CC[C@H]5[C@]6(O)C[C@H](O)[C@@]7(O)[C@@H](CN8C[C@@H](C)CC[C@H]8[C@@]7(C)O)[C@]6(O)C[C@@]53O[C@]24O)cc1OC` [Veratridine], in assay [1] (Well no.=3222), the remaining activity at 1.25 µM was 99.9%. The remaining activity at 3.75 µM in assay [2] (Well no.=3222) worked out at 101%.

In the case of `CC(C)(C)c1ccc(S(=O)(=O)Nc2ccc(Cl)cc2C(=O)c2cc[n+]([O-])cc2)cc1` [Vercirnon], in assay [1] (Well no.=8645), the remaining activity at 1.25 µM is 103%. Also, the remaining activity at 3.75 µM in assay [2] (Well no.=8645) was 103%.

As to `COc1ccc2c3c4n(c2c1)[C@H](C=C(C)C)OOC(C)(C)C[C@@H]4N1C(=O)[C@@H]2CCCN2C(=O)[C@]1(O)[C@H]3O` [Verruculogen], the remaining activity at 1.25 µM in assay [1] (Well no.=3556) was determined as 98.3%. For the same compound, in assay [2] (Well no.=3556), the remaining activity at 3.75 µM amounted to 102%.

`CCCCOc1nc(N)c2c(n1)N(Cc1cccc(CN3CCCC3)c1)CC(=O)N2` [Vesatolimod]: the remaining activity at 1.25 µM in assay [1] (Well no.=8127) is 105%. In assay [2] (Well no.=8127), the remaining activity at 3.75 µM was 102%.

Take `COC[C@@H](c1ccc(C(F)(F)F)cc1)N1CCN(C2(C)CCN(C(=O)c3c(C)ncnc3C)CC2)C[C@@H]1C` [Vicriviroc (maleate)]: the remaining activity at 1.25 µM in assay [1] (Well no.=8655) came to 106%. For the same compound, the remaining activity at 3.75 µM in assay [2] (Well no.=8655) came out at 103%.

In the case of `Nc1ncnc2c1ncn2[C@@H]1O[C@H](CO)[C@@H](O)[C@@H]1O` [Vidarabine], the remaining activity at 1.25 µM in assay [1] (Well no.=2046) amounted to 107%; in assay [1] (Well no.=8006), 93.6%. Further, the remaining activity at 3.75 µM in assay [2] (Well no.=2046) amounted to 110%; in assay [2] (Well no.=8006), 95.5%.

Turning to `COc1cccc(-c2ccc(NC(=O)C3=C(C(=O)O)CCC3)c(F)c2)c1` [Vidofludimus], the remaining activity at 1.25 µM in assay [1] (Well no.=8524) turned out to be 99.5%. Further, in assay [2] (Well no.=8524), the remaining activity at 3.75 µM was 96.6%.

Regarding `N#Cc1ccc2[nH]cc(CCCCN3CCN(c4ccc5oc(C(N)=O)cc5c4)CC3)c2c1` [Vilazodone (Hydrochloride)], the remaining activity at 1.25 µM in assay [1] (Well no.=6286) worked out at 105%. Moreover, the remaining activity at 3.75 µM in assay [2] (Well no.=6286) amounted to 106%.

Regarding `N#Cc1ccc2[nH]cc(CCCCN3CCN(c4ccc5oc(C(N)=O)cc5c4)CC3)c2c1` [Vilazodone], in assay [1] (Well no.=6477), the remaining activity at 1.25 µM was found to be 90.6%. In addition, the remaining activity at 3.75 µM in assay [2] (Well no.=6477) was 89.2%.

Consider `N#C[C@@H]1CCCN1C(=O)CNC12CC3CC(CC(O)(C3)C1)C2` [Vildagliptin (LAF-237)], for which the remaining activity at 1.25 µM in assay [1] (Well no.=4885) stood at 99.1%. Further, the remaining activity at 3.75 µM in assay [2] (Well no.=4885) worked out at 99.9%.

Turning to `CC[C@]1(O)C[C@@H]2CN(CCc3c([nH]c4ccccc34)[C@@](C(=O)OC)(c3cc4c(cc3OC)N(C)[C@H]3[C@@](O)(C(=O)OC)[C@H](OC(C)=O)[C@]5(CC)C=CCN6CC[C@]43[C@@H]65)C2)C1` [Vinblastine sulfate salt], the remaining activity at 1.25 µM in assay [1] (Well no.=1288) is 111%. The remaining activity at 3.75 µM in assay [2] (Well no.=1288) turned out to be 108%.

As to `CC[C@]1(O)C[C@@H]2CN(CCc3c([nH]c4ccccc34)[C@@](C(=O)OC)(c3cc4c(cc3OC)N(C)[C@H]3[C@@](O)(C(=O)OC)[C@H](OC(C)=O)[C@]5(CC)C=CCN6CC[C@]43[C@@H]65)C2)C1` [Vinblastine sulfate], the remaining activity at 1.25 µM in assay [1] (Well no.=3224) was 100%. For the same compound, the remaining activity at 3.75 µM in assay [2] (Well no.=3224) worked out at 97.9%.

In the case of `CC[C@]1(O)C[C@@H]2CN(CCc3c([nH]c4ccccc34)[C@@](C(=O)OC)(c3cc4c(cc3OC)N(C)[C@H]3[C@@](O)(C(=O)OC)[C@H](OC(C)=O)[C@]5(CC)C=CCN6CC[C@]43[C@@H]65)C2)C1` [Vinblastine], the remaining activity at 1.25 µM in assay [1] (Well no.=2165) came out at 101%. In assay [2] (Well no.=2165), the remaining activity at 3.75 µM turned out to be 103%.

In the case of `CC[C@]12CCCN3CCc4c(n(c5ccccc45)[C@@](O)(C(=O)OC)C1)[C@@H]32` [Vincamine], in assay [1] (Well no.=3475), the remaining activity at 1.25 µM is 106%. In assay [2] (Well no.=3475), the remaining activity at 3.75 µM was 102%.

`CC[C@]1(O)C[C@H]2CN(CCc3c([nH]c4ccccc34)[C@@](C(=O)OC)(c3cc4c(cc3OC)N(C=O)[C@H]3[C@@](O)(C(=O)OC)[C@H](OC(C)=O)[C@]5(CC)C=CCN6CC[C@]43[C@@H]65)C2)C1` [Vincristine sulfate]: the remaining activity at 1.25 µM worked out at 97.3% in assay [1] (Well no.=1194), 104% in assay [1] (Well no.=2035) and 102% in assay [1] (Well no.=3226). The results for the remaining activity at 3.75 µM in assay [2] (Well no.=1194) and in assay [2] (Well no.=3226) were 97.6% and 105%, respectively.

Consider `CC[C@]1(O)C[C@@H]2CN(CCc3c([nH]c4ccccc34)[C@@](C(=O)OC)(c3cc4c(cc3OC)N(C)[C@H]3[C@@](O)(C(N)=O)[C@H](O)[C@]5(CC)C=CCN6CC[C@]43[C@@H]65)C2)C1` [Vindesine sulfate], for which the remaining activity at 1.25 µM in assay [1] (Well no.=2031) was determined as 102%. For the same compound, the remaining activity at 3.75 µM in assay [2] (Well no.=2031) came out at 103%.

On to `CCC12C=CCN3CC[C@@]4(c5ccc(OC)cc5N(C)[C@H]4[C@@](O)(C(=O)OC)[C@@H]1OC(C)=O)[C@@H]32` (stereo partly drawn) [Vindoline], for which, in assay [1] (Well no.=3761), the remaining activity at 1.25 µM worked out at 96.2%. Also, the remaining activity at 3.75 µM in assay [2] (Well no.=3761) was 96.6%.

For the compound `CC[C@]12C=CCN3CC[C@@]4(c5cc([C@@]6(C(=O)OC)C[C@@H]7C[C@@H](C(C)(F)F)CN(Cc8c6[nH]c6ccccc86)C7)c(OC)cc5N(C)[C@H]4[C@@](O)(C(=O)OC)[C@@H]1OC(C)=O)[C@@H]32` [Vinflunine Tartrate], the remaining activity at 1.25 µM in assay [1] (Well no.=4892) is 95.2%. Moreover, the remaining activity at 3.75 µM in assay [2] (Well no.=4892) turned out to be 94.7%.
